Reference: ChEMBL document CHEMBL6071211, “Invention of VH-937, a Potent HIV-1 Maturation Inhibitor with the Potential for Infrequent Oral Dosing in Humans” (ACS Med Chem Lett, 2024)
Converted amounts (≈) assume the structure as drawn.

Legend:
[1] = test system: Human immunodeficiency virus 1; test: In vitro antiviral activity against fully replicating pseudotype HIV1 harboring Gag V370A mutant by single cycle assay; assay type: functional, organism-based
[2] = test system: Human immunodeficiency virus 1; test: In vitro antiviral activity against fully replicating HIV1 harboring Gag T332S/[…]/prR41G mutant assessed as maximum percent inhibition by multicycle assay relative to control; assay type: functional
[3] = test system: Human immunodeficiency virus 1; test: In vitro antiviral activity against fully replicating HIV1 harboring Gag […]/V370A mutant by multicycle assay; assay type: functional, organism-based
[4] = test system: Human immunodeficiency virus 1; test: In vitro antiviral activity against HIV1 subtype A clinical isolate UG275; assay type: functional, organism-based; conditions: Human immunodeficiency virus 1, UG275
[5] = test system: Human immunodeficiency virus 1; test: Ratio of EC50 for antiviral activity against fully replicating pseudotype HIV1 harboring Gag V370A mutant by single cycle assay to EC50 for antiviral activity against fully replicating wild type pseudotype HIV1 NLRepRluc-P373S by single cycle assay; assay type: functional
[6] = test system: Human immunodeficiency virus 1; test: In vitro antiviral activity against fully replicating pseudotype HIV1 harboring Gag deltaV370 mutant by single cycle assay; assay type: functional, organism-based
[7] = Lipophilicity, logD of compound; assay type: physicochemical; conditions: octanol/water
[8] = Oral bioavailability in mouse at 5 mg/kg; assay type: ADME, organism-based; conditions: in vivo
[9] = test system: Human immunodeficiency virus 1; test: In vitro antiviral activity against fully replicating HIV1 NL4-3 harboring Gag T332S/V362I/prR41G mutant; assay type: functional, organism-based; conditions: Human immunodeficiency virus 1, NL4-3
[10] = test system: Human immunodeficiency virus 1; test: In vitro antiviral activity against fully replicating pseudotype HIV1 harboring Gag T332S/[…]/prR41G mutant by single cycle assay; assay type: functional, organism-based
[11] = AUC (infinity) in mouse at 5 mg/kg, po; assay type: ADME, organism-based; conditions: in vivo
[12] = AUC (infinity) in mouse at 1 mg/kg, iv; assay type: ADME, organism-based; conditions: in vivo
[13] = test system: Human immunodeficiency virus 1; test: In vitro antiviral activity against fully replicating wild type HIV1 NL4-3 in presence of human serum; assay type: functional, organism-based; conditions: Human immunodeficiency virus 1, NL4-3
[14] = Clearance in rat at 1 mg/kg, iv; assay type: ADME, organism-based; conditions: in vivo
[15] = test system: Human immunodeficiency virus 1; test: In vitro antiviral activity against fully replicating HIV1 NL4-3 harboring Gag A364V mutant; assay type: functional, organism-based; conditions: Human immunodeficiency virus 1, NL4-3
[16] = Elimination half life in Cynomolgus monkey at 5 mg/kg, po; assay type: ADME, organism-based, Macaca fascicularis; conditions: in vivo, read-out: beta t1/2 (converted)
[17] = Genotoxicity in Salmonella typhimurium by Ames test; assay type: toxicity; conditions: salmonella enterica subsp. enterica serovar typhimurium
[18] = Elimination half life in dog at 2 mg/kg, iv; assay type: ADME, organism-based, Canis lupus familiaris; conditions: in vivo, read-out: beta t1/2 (converted)
[19] = Metabolic stability in Cynomolgus monkey liver microsomes assessed as half life; assay type: ADME, Macaca fascicularis, Microsome
[20] = test system: Human immunodeficiency virus 1; test: In vitro antiviral activity against HIV1 subtype C clinical isolate 97ZA009; assay type: functional, organism-based; conditions: Human immunodeficiency virus 1, 97ZA009
[21] = test system: Human immunodeficiency virus 1; test: In vitro antiviral activity against fully replicating HIV1 harboring Gag V370A/deltaV371 mutant assessed as maximum percent inhibition by multicycle assay relative to control; assay type: functional
[22] = AUC (infinity) in Cynomolgus monkey at 2 mg/kg, iv; assay type: ADME, organism-based, Macaca fascicularis; conditions: in vivo
[23] = test system: Human immunodeficiency virus 1; test: Ratio of EC50 for antiviral activity against fully replicating pseudotype HIV1 harboring Gag A364V mutant by single cycle assay to EC50 for antiviral activity against fully replicating wild type pseudotype HIV1 NLRepRluc-P373S by single cycle assay; assay type: functional
[24] = Volume of distribution at steady state in dog at 2 mg/kg, iv; assay type: ADME, organism-based, Canis lupus familiaris; conditions: in vivo, read-out: Vdss
[25] = Aqueous solubility of compound in fed state simulated intestinal fluid (FeSSIF); assay type: physicochemical; conditions: simulated gi fluid
[26] = Clearance in Cynomolgus monkey at 2 mg/kg, iv; assay type: ADME, organism-based, Macaca fascicularis; conditions: in vivo
[27] = Volume of distribution at steady state in rat at 1 mg/kg, iv; assay type: ADME, organism-based; conditions: in vivo, read-out: Vdss
[28] = test system: Human immunodeficiency virus 1; test: In vitro antiviral activity against HIV1 subtype B clinical isolate 92T593; assay type: functional, organism-based; conditions: Human immunodeficiency virus 1, 92T593
[29] = target: Cytochrome P450 3A4 (Homo sapiens, UniProt P08684); test: Inhibition of CYP3A4 (unknown origin); assay type: ADME
Chain of Cytochrome P450 3A4 (P08684 whole entry): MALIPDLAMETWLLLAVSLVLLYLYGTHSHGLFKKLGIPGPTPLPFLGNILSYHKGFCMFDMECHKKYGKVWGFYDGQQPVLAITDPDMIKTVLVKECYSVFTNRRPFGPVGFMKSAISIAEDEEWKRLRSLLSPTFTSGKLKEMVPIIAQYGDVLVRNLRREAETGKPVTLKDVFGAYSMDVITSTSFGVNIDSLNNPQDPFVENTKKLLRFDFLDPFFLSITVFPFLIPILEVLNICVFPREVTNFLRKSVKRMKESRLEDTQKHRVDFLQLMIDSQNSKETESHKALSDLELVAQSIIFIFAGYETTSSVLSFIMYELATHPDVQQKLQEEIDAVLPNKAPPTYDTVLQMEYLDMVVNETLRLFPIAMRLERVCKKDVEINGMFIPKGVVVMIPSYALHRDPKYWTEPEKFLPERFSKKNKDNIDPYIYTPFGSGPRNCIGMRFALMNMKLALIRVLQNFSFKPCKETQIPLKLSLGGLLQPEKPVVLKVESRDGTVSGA

[30] = test system: Human immunodeficiency virus 1; test: In vitro antiviral activity against fully replicating HIV1 harboring Gag […]/V370A mutant assessed as maximum percent inhibition by multicycle assay relative to control; assay type: functional
[31] = test system: Human immunodeficiency virus 1; test: Ratio of EC50 for antiviral activity against fully replicating pseudotype HIV1 harboring Gag V3621/V370A mutant by single cycle assay to EC50 for antiviral activity against fully replicating wild type pseudotype HIV1 NLRepRluc-P373S by single cycle assay; assay type: functional
[32] = Metabolic stability in human liver microsomes assessed as half life; assay type: ADME, Microsome
[33] = test system: Human immunodeficiency virus 1; test: In vitro antiviral activity against fully replicating HIV1 harboring Gag T332S/[…]/prR41G mutant by multicycle assay; assay type: functional, organism-based
[34] = Elimination half life in rat at 5 mg/kg, po; assay type: ADME, organism-based; conditions: in vivo, read-out: beta t1/2 (converted)
[35] = test system: Human immunodeficiency virus 1; test: Binding affinity to HIV1 Gag A364V mutant assessed as dissociation half life by virus-like particle (VLP) assay
[36] = Elimination half life in mouse at 1 mg/kg, iv; assay type: ADME, organism-based; conditions: in vivo, read-out: beta t1/2 (converted)
[37] = target: T1, Cytochrome P450 2B6 (Homo sapiens, UniProt P20813); test: Inhibition of CYP2B6 (unknown origin); assay type: ADME
T1 sequence (P20813 whole entry): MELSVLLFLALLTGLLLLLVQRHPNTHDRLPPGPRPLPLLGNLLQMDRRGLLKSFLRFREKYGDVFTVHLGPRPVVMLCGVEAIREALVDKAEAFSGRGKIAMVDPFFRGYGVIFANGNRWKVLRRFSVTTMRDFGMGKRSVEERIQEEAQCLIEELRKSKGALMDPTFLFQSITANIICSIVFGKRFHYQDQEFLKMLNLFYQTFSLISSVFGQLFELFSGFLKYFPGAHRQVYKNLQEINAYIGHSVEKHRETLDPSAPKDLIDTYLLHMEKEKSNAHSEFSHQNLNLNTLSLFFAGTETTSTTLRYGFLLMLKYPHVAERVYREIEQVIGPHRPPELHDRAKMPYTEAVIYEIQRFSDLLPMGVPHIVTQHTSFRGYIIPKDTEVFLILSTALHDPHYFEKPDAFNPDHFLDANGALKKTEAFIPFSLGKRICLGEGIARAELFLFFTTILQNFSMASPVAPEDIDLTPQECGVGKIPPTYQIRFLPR

[38] = test system: Human immunodeficiency virus 1; test: Ratio of EC50 for antiviral activity against fully replicating HIV1 harboring Gag V370A mutant by multicycle assay to EC50 for antiviral activity against fully replicating wild type HIV1 NLRepRluc-P373S by multicycle assay; assay type: functional
[39] = AUC (infinity) in rat at 5 mg/kg, po; assay type: ADME, organism-based; conditions: in vivo
[40] = test system: Human immunodeficiency virus 1; test: In vitro antiviral activity against HIV1 subtype D clinical isolate UG270; assay type: functional, organism-based; conditions: Human immunodeficiency virus 1, UG270
[41] = Clearance in dog at 2 mg/kg, iv; assay type: ADME, organism-based, Canis lupus familiaris; conditions: in vivo
[42] = Oral bioavailability in dog at 5 mg/kg; assay type: ADME, organism-based, Canis lupus familiaris; conditions: in vivo

C=C(C)[C@@H]1CC[C@]2(NCCN3CCS(=O)(=O)CC3)CC[C@]3(C)[C@H](CC[C@@H]4[C@@]5(C)CC=C(C6=CC[C@](COc7ncccc7C#N)(C(=O)O)CC6)C(C)(C)[C@@H]5CC[C@]43C)[C@@H]12
EC50 [1]: 6 nM | Imax [2]: 98% | EC50 [3]: 2 nM | EC50 [4]: 2 nM | Ratio EC50 [5]: 1.2 | EC50 [6]: 12 nM | logD [7]: 4.74 | bioavailability [8]: 46% | EC50 [9]: 8 nM | EC50 [10]: 24 nM | AUC(0-inf) [11]: 73.8 µM·h | AUC(0-inf) [12]: 32.2 µM·h | EC50 [13]: 26 nM | clearance [14]: 1.23 mL/min/kg | EC50 [15]: 5 nM | half-life [16]: 11.4 h | Activity [17]: Non-Toxic | half-life [18]: 26.9 h | half-life [19]: 0.2 h | EC50 [20]: 5 nM | Imax [21]: 92.2% | AUC(0-inf) [22]: 65.5 µM·h | Ratio EC50 [23]: 6.4 | Vd [24]: 0.43 L/kg | solubility [25]: 363 µg/mL (≈ 439 µM) | clearance [26]: 0.32 mL/min/kg | Vd [27]: 0.87 L/kg | EC50 [28]: 1 nM | IC50 [29]: > 4400 nM | Imax [30]: 94% | Ratio EC50 [31]: 2.3 | half-life [32]: > 2 h | EC50 [33]: 8 nM | half-life [34]: 8.6 h | T1/2 [35]: 0.483 h | half-life [36]: 10.9 h | IC50 [37]: > 4400 nM | Ratio EC50 [38]: 2 | AUC(0-inf) [39]: 36.3 µM·h | EC50 [40]: 2 nM | clearance [41]: 0.21 mL/min/kg | bioavailability [42]: 59%
